Earlier results as cited in patent US11786452B2, “Method for dyeing keratinous material” (Henkel AG & Co. KGaA, priority 2019, dated 2023).

Settings: 25° C.

| SMILES | solubility in water |
| --- | --- |
| CCN(Cc1cccc(S(=O)(=O)[O-])c1)c1ccc(C(=C2C=CC(=[N+](CC)Cc3cccc(S(=O)(=O)[O-])c3)C=C2)c2ccccc2S(=O)(=O)[O-])cc1.[Na+].[Na+] [Acid Blue 9] | more than 20 % by weight |
| O=S(=O)([O-])c1ccc(N=Nc2c(O)ccc3ccccc23)cc1.[Na+] [Acid Orange 7, sodium salt of 4-[(2-hydroxy-1-naphthyl)azo]benzene sulphonate] | more than 7 g/L |
| Nc1cc(S(=O)(=O)[O-])cc2cc(S(=O)(=O)[O-])c(N=Nc3ccccc3)c(O)c12.[Na+].[Na+] [Acid Red 33, diantrium salt of 5-amino-4-hydroxy-3-(phenylazo)-naphthalene-2,7-disulphonate] | 2500 µg/mL |
| O=C([O-])c1c(Cl)c(Cl)c(Cl)c(Cl)c1-c1c2c(Br)cc(=O)c(Br)c-2oc2c(Br)c(O)cc(Br)c12.O=C([O-])c1c(Cl)c(Cl)c(Cl)c(Cl)c1-c1c2c(Br)cc(=O)c(Br)c-2oc2c(Br)c(O)cc(Br)c12.[Na+].[Na+] [Acid Red 92, disodium salt of 3,4,5,6-tetrachloro-2-(1,4,5,8-tetrabromo-6-hydroxy-3-oxoxanthen-9-yl)benzoic acid] | greater than 10 g/L |
| O=C([O-])C1=NN(c2ccc(S(=O)(=O)[O-])cc2)C(=O)C1N=Nc1ccc(S(=O)(=O)[O-])cc1.[Na+].[Na+].[Na+] (centres unmarked) [Acid Yellow 23, trisodium salt of 4,5-dihydro-5-oxo-1-(4-sulfophenyl)-4-((4-sulfophenyl)azo)-1H-pyrazole-3-carboxylic acid] | highly soluble |
